“And” between values parts separate entries of the source, which are not always exact repeats. Equal values may be shown once.
Columns and labels:
[1] = system: rats with endotoxin-induced sepsis; assay: Rat survival in LPS-induced endotoxinemia; format: in vivo; conditions: 100 mg/kg 3 hours before LPS (15 mg/kg i.p.) and 50 mg/kg with LPS; 48 hours
Procedure: Endotoxins administered to animals produce cardiovascular and multiorgan disorders that are similar to clinical sepsis. Thus, in the present study, a rat model was developed to test possible Lipid-conjugate effects on mediator production and mortality in endotoxin-induced Sepsis. Rats were intraperitoneally (i.p.) or intravenously (i.v.) injected with a Lipid-conjugate (Compound XXII, 100 mg/kg) dissolved in sterile saline or with sterile saline alone as placebo. After 3 hours, all rats received LPS (15 mg/kg i.p.; Escherichia coli 111:B44 LPS, Sigma, Deisenhofen, Germany). In rats that were pretreated with Compound XXII, LPS was injected together with a second dose of Compound XXII (50 mg/kg). The effect of Compound XXII on LPS injected rats was observed over a time period of 48 hours.

[2] = system: cysteinyl leukotrienes (LTC4, LTD4 and LTE4); assay: Cysteinyl leukotriene level in BAL of OVA-induced asthmatic rats
TNF-α and IL-6 in serum = assay: Serum cytokine levels in septic rats (ELISA); format: in vivo, rat
Procedure: Blood samples were collected 1, 6, 12, and 24 hours after LPS injection to assess cytokine concentrations (FIG. 4.3A). […] Thereafter, the animals received LPS (7.5 mg/kg) i.p. alone or together with Compound XXII (150 mg/kg) or Compound XXV (50 mg/kg). Blood samples were collected after LPS injection. A group of rats that was not treated with Lipid-conjugates or LPS served as negative controls (FIG. 4.3B). All cytokines were measured in separated serum by ELISA Immunoassays (R&D Systems GmbH, Wiesbaden, Germany) according to the instructions of the manufacturer.
In Experiment 4.5, sepsis was induced by LPS ([…] endotoxin, 5 mg/kg) and lipoteichoic acid (LTA, […] endotoxin, 5 mg/kg; Staph. aureus LTA, Sigma, Germany).

mice = assay: Long-term (30 weeks) toxicity test; format: in vivo
Procedure: For the long-term toxicity test a group of 6 mice received an i.p injection of 100 mg Lipid-conjugate (Compound XXII)/kg body weight 3 times a week for 30 weeks (e.g., 180 mg total to a mouse weighing 20 g). Toxicity was evaluated as for Table 8.1. The results of the long-term toxicity test are depicted in Table 8.2.

[3] = system: Influenza A (H3N2 strain) virus; format: cell-based, Influenza type A, A/Panama/2007/99 (H3N2)
[4] = system: Madin Darby canine kidney (MDCK) cells; assay: Cytotoxicity assay, visual observation, uninfected cells; format: cell-based; conditions: high concentration
Procedure: Uninfected cells were treated with each concentration of test compound in duplicate and run in parallel with the infected, treated wells in the CPE inhibition tests described above. The toxicity control cells (uninfected and treated) were examined under a light microscope for changes in cell appearance compared to control cells (uninfected, untreated) on the same plate as described above. The 50% cell inhibitory (cytotoxic) concentrations (IC50) were calculated by regression analysis.

Punta Toro virus = format: cell-based, strain Adames
[5] = system: Influenza A (H1N1 strain) virus; format: cell-based, Influenza type A, A/New Caledonia/20/99 (H1N1); conditions: high concentration, Neutral Red Uptake Assay
Influenza B virus = format: cell-based, Influenza type B, B/Hong Kong/330/02; conditions: high concentration, Neutral Red Uptake Assay
[6] = system: Guinea pig tracheal rings; assay: Inhibition of tracheal ring contraction; conditions: stimulant Histamine (20 μM); Lipid-conjugate 15 μM
Procedure: A muscle preparation (tracheal rings) was isolated from rats (Experiments 3.1-3.3) and from guinea pigs (Experiments 3.4-3.5). Muscle contraction was measured by attachment of the muscle to a pressure transducer, which works much like a spring. Administration of asthmatogenic substances such as endothelin-1 (ET) and acetylcholine (AcCh) induces muscle contraction. Endothelins are released upon vascular endothelial injury, and they activate macrophages and act as strong chemo-attractants for circulating monocytes. Endothelins affect vascular smooth muscle fibroblast proliferation; help regulate vascular, airway, and intestinal smooth muscle tone; increase the activity of bone alkaline phosphatase; stimulate release of atrial natriuretic peptide (ANP) from atrial cardiocytes; inhibit the release of renin from glomeruli and modulate norepinephrine at sympathetic nerve termini. Opposing vasomotor effects are regulated through the binding of distinct endothelin receptors for vasoconstriction and vasodilation. Endothelins have been linked to atherosclerosis and various cardiovascular disease states. ET-1 is important in congestive heart failure, renal failure, pulmonary hypertension, hyperlipidemia and metastatic prostate cancer. On the other hand, AcCh is one of the three main receptors on the bronchi of the lungs, which are basically tubes with muscular walls. Stimulation of bronchial AcCh receptor induces muscle contraction and decreased airflow through the bronchi. Thus, ET and AcCh were used to experimentally induce muscle contraction in the lungs as a model of obstructive respiratory disorders.
Experiment 3.4: Guinea pig tracheal rings (in a linear array), immersed in a ringer bath, were connected to an apparatus measuring the length of the ring chain. […] Human airways have both Histamine (H)-1 and H2 receptors. H1 receptors, which mediate bronchoconstriction, predominate. Histamine application in experimental models produces signs and symptoms of asthma, such as narrowing of the airways, mucus secretion, wheezing, and coughing.

Human RBC = assay: Prevention of hemolysis of human red blood cells; format: cell-based; conditions: 20 min, 10 μM Lipid-conjugate, None = 1.000
Procedure: Hemolysis, the breakdown of red blood cells (RBC), may be either a primary disease in itself, or a syndrome associated with another disease or physiological insult. In order to determine the effect of Lipid-conjugates on hemolysis, red blood cells were incubated in the presence of known membrane destabilizing agents and the release of hemoglobulin into the extracellular medium was detected.
Human RBC were washed in saline and suspended in Hanks buffer (pH 7.4). Hemolysis was induced in the absence or presence of 10 μM Lipid-conjugates by treatment with either 5 U/ml streptolysin O (SLO), 25 U/ml streptolysin S (SLS), or 5 μg/ml lysophosphatidylcholine (lyso-PC) for 20 min. The cell membranes were spun and the hemoglobin content in the supernatant was determined by measuring the O.D. at 540 nm (Table 5.1).

[7] = 100 mg/kg i.p. 3 times/week for 30 weeks

Question: Which results are given for “dipalmitoyl-PE conjugated to HA [Compound XXII]”?
Answer: mortality rate among septic rats [1]: markedly reduced the mortality rate; CysLT levels in BAL ([2]; SC administration, compared with Naive rats): no significant difference; CysLT levels in BAL ([2]; aerosol inhalation, compared with Naïve rats, P<0.01 vs Asthmatic): no significant difference; cytokine production induced by LPS or LPS + LTA (TNF-α and IL-6 in serum; 150 mg/kg, 5 mg/kg i.p. LPS, or LPS + 5 mg/kg i.p. LTA, 1 and 6 hours): effective in suppressing cytokine production; endotoxin-induced cytokine production (TNF-α and IL-6 in serum; i.v. at the same time as LPS i.p., versus i.p. pretreatment): suppressed equally well; mortality (mice; 100 mg/kg i.p. 3 times a week for 30 weeks): no incidents of mortality; changes in body weight, red or white blood cell count, or hematocrit (mice; 100 mg/kg i.p. 3 times a week for 30 weeks, compared to control, untreated mice): no significant changes; Body weight (g) Final (mice; [7]): 39.0 ± 2.7 g; Hematocrit % (mice; [7]): 43.4 ± 4.9%; RBC × 10^6 (mice; [7]): 11.7 ± 0.7 × 10^6; WBC × 10^3 (mice; [7]): 8.1 ± 15 × 10^3

Question: For “dipalmitoyl-phosphatidyl-ethanolamine conjugated to heparin [Compound XXIV]”, which “SI (IC50/EC50)” value [3] is on record?
Answer: The value was 2.9 and 2.

Question: What about the EC50 ([3]; high concentration, Visual Observation Assay, Influenza A (H3N2 strain)) of the same substance?
Answer: The EC50 was 200 µg/mL.

Question: And the IC50 ([4]; listed as Influenza A (H1N1 strain))?
Answer: Its IC50 is 35 µg/mL.

Question: What about the IC50 ([4]; listed as Influenza A (H3N2 strain)) of the same substance?
Answer: Its IC50 is 100 µg/mL.

Question: And the IC50 ([4]; listed as Influenza B)?
Answer: Its IC50 is 90 µg/mL.

Question: And the “SI (IC50/EC50)” value (Punta Toro virus)?
Answer: Its value is 0.

Question: What about the EC50 (Punta Toro virus; low concentrations, Neutral Red Uptake Assay, Punta Toro A) of the same substance?
Answer: Its EC50 is >100 µg/mL.

Question: What about the EC50 [5] of the same substance?
Answer: The EC50 was 1000 µg/mL.

Question: What about the EC50 (Influenza B virus) of the same substance?
Answer: Its EC50 is 450 µg/mL.

Question: What about the “% Inhibition of tracheal ring contraction” value [6] of the same substance?
Answer: The value was 56 ± 0.05%.

Question: What about the “HEMOLYSIS (O.D. AT 540 nm), Lyso-PC” value (Human RBC; 5 μg/ml lysophosphatidylcholine) of the same substance?
Answer: The value was 0.002 O.D.

Question: And the “HEMOLYSIS (O.D. AT 540 nm), SLO” value (Human RBC; 5 U/ml streptolysin O)?
Answer: The value was 0.002 O.D.

Question: And the “HEMOLYSIS (O.D. AT 540 nm), SLS” value (Human RBC; 25 U/ml streptolysin S)?
Answer: Its value is 1.100 O.D.

— patent publication US7504384B2 (priority 2000, dated 2009)
